What was measured:
Assay type in all cases: biochemical
[1] = biological target: T1, MMP14 (Homo sapiens, UniProt P50281); assay: Fluorimetric enzymatic test, MMP14; conditions: for IC50: catalytic domain, fluorimetric test
T1 construct: in the form of the catalytic domains alone for the other MMPs
Method: (§1) Determination of the modulatory activity on the proteolytic action of the various MMPs tested (MMP1, 2, 3, 8, 9, 12, 13 and 14) using the compounds of formula (I) according to the present invention was performed via fluorometry on a 96-well plate.
(§2) The test compounds were dissolved in DMSO to a concentration of 5 mM or 50 mM. 5-fold or 10-fold (D5 or D10) serial dilutions of each compound were prepared so as to reach the nominal range of 5 assays on which the test was performed. Each of the dilutions was added to a well containing 150 µl of activated buffer (50 mM Tris/HCl; 0.1 M NaCl; 10 mM CaCl2; 0.05% Brij 35) together with the enzyme on which the test was performed.
(§3) The concentration of the enzyme [in full-length form in the case of MMP2; in the form of the catalytic domains alone for the other MMPs] ranged between 0.5 nM and 3 nM based on the activity of the enzyme on the fluorogenic substrate used (7-methoxycoumarin-4-yl)-Pro-Leu-Gly-Leu-DPA-Ala-Arg-NH2 (MCA-1) for MMP 1, 2, 3, 8, 9, 12 and 14) and MCA-Pro-(L-cyclohexylalanine)-Gly-(L-norvaline)-His-Ala-3-(2,4-dinitrophenyl)-L-2,3-diaminopropionyl)-NH2 for MMP13) (Knight et al. 1992. FEBS Lett. 296, 263; Knauper et al. 1996, J. Biol. Chem. 271, 1544).
(§4) After incubation for one hour at 37°C of the compound with the enzyme, 50 µl of a solution of fluorogenic substrate were added to a final concentration of between 2 and 7 µM.
(§5) The fluorometric readings were then taken using a Varian Cary Eclipse spectrofluorometer regulated on the specific wavelength for the substrate used, at time T0 and after 3 hours of incubation at 37° (T3h).

[2] = biological target: T2, MMP2 (Homo sapiens, UniProt P08253); assay: Fluorimetric enzymatic test, MMP2; conditions: full enzyme, read-out: IC50MMP2 (full enzyme)
T2 construct: in full-length form in the case of MMP2
T2 sequence (P08253 110-660): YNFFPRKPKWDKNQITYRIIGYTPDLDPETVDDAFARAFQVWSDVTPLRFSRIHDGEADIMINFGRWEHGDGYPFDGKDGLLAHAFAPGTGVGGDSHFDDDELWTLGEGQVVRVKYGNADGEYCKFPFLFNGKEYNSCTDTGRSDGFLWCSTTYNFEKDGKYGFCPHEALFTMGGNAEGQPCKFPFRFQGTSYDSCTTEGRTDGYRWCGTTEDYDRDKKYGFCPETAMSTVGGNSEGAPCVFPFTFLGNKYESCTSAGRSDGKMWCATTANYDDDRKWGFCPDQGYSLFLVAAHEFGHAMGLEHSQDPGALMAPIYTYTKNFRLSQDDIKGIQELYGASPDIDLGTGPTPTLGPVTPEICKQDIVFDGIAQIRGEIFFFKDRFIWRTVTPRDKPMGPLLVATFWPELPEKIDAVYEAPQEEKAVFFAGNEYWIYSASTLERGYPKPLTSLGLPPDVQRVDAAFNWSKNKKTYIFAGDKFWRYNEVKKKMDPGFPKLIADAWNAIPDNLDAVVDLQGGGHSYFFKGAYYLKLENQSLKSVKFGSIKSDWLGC
Method: as §1, §2, §4, §5

[3] = biological target: T3, MMP3 (Homo sapiens, UniProt P08254); assay: Fluorimetric enzymatic test, MMP3; conditions: for IC50: catalytic domain, fluorimetric test
T3 construct: in the form of the catalytic domains alone for the other MMPs
Method: as §1, §2, §4, §5

[4] = biological target: T4, MMP12 (Homo sapiens, UniProt P39900); assay: Fluorimetric enzymatic test, MMP12; conditions: catalytic domain
T4 construct: in the form of the catalytic domains alone for the other MMPs
Method: as §1, §2, §3, §4, §5

[5] = biological target: T5, MMP8 (Homo sapiens, UniProt P22894); assay: Fluorimetric enzymatic test, MMP8; conditions: catalytic domain
T5 construct: in the form of the catalytic domains alone for the other MMPs
Method: as §1, §2, §3, §4, §5

[6] = biological target: T6, MMP1 (Homo sapiens, UniProt P03956); assay: Fluorimetric enzymatic test, MMP1; conditions: for IC50: catalytic domain, fluorimetric test
T6 construct: in the form of the catalytic domains alone for the other MMPs
T6 sequence (P03956 98-276 limits assumed): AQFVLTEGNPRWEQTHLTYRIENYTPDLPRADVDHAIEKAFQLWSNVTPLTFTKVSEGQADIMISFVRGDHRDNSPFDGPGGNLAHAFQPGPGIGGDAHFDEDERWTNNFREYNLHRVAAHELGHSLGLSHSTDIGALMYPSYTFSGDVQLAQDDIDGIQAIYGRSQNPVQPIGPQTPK
Method: as §1, §2, §4, §5

[7] = biological target: T7, MMP13 (Homo sapiens, UniProt P45452); assay: Fluorimetric enzymatic test, MMP13; conditions: catalytic domain
T7 construct: in the form of the catalytic domains alone for the other MMPs
Method: as §1, §2, §4, §5

[8] = biological target: T8, MMP9 (Homo sapiens, UniProt P14780); assay: Fluorimetric enzymatic test, MMP9; conditions: catalytic domain
T8 construct: in the form of the catalytic domains alone for the other MMPs
Method: as §1, §2, §3, §4, §5

[9] = relative to the limit value of 0.3 nM for MMP2

T5 sequence (P22894 100-262 limits assumed, species assumed): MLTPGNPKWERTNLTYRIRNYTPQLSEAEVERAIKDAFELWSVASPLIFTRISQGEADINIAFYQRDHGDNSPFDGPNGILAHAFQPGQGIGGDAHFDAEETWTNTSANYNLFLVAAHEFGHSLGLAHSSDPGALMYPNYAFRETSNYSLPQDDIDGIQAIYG
T3 sequence (P08254 100-272 limits assumed, species assumed): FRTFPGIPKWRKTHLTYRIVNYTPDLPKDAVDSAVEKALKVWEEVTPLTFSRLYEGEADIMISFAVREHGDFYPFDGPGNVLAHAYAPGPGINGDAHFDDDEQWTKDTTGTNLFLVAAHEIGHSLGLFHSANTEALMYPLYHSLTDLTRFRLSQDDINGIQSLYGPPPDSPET
T8 sequence (P14780 107-444 limits assumed, species assumed): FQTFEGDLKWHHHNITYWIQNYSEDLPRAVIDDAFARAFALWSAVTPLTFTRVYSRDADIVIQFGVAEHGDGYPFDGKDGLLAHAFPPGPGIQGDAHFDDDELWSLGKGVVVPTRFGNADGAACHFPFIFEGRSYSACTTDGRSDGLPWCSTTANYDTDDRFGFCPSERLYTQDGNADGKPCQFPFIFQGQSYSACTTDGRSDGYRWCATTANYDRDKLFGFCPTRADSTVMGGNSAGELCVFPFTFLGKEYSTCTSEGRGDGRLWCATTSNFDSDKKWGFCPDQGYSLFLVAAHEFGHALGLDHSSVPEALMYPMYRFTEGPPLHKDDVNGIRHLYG
T4 sequence (P39900 106-263 limits assumed, species assumed): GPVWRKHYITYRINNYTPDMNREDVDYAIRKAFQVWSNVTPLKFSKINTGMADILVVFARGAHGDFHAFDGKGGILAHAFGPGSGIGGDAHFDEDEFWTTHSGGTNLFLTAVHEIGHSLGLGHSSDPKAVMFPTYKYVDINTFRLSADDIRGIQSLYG

SMILES	IC50 [1] [nM]	IC50 [2] [nM]	IC50 [3] [nM]	IC50 [4] [nM]	IC50 [5] [nM]	IC50 [6] [nM]	IC50 [7] [nM]	IC50 [8] [nM]	decrease in inhibitory power with respect to MMP14 [1, 9] [fold]	decrease in inhibitory power with respect to MMP3 [3, 9] [fold]	decrease in inhibitory power with respect to MMP1 [6, 9]
CCCCOc1ccc(S(=O)(=O)N2CCc3c([nH]c4ccccc34)C2C(=O)NO)cc1 (racemic) [Compound 10, (1R,S)-2-(4'-butoxybenzenesulfonyl)-1,2,3,4-tetrahydro-norarmano-N-hydroxy-1-carboxamide]	50 ± 11	7 ± 2.5	4000 ± 1500	< 0.5	< 0.5	20000 ± 2000	2000 ± 500	6 ± 2	–	–	–
O=C(O)C1c2[nH]c3ccccc3c2CCN1S(=O)(=O)c1ccc(Oc2ccc(F)cc2)cc1 (racemic) [Compound 9, (1 RS)-2-(4"-fluoro-4'phenoxybenzenesulfonyl)-1,2,3,4-tetrahydronorarmano-1-carboxylic acid]	> 50000	28000 ± 1000	> 50000	2000 ± 300	21000 ± 2000	> 50000	> 50000	4000 ± 1000	–	–	–
CC1(C)SCCN(S(=O)(=O)c2ccc(Oc3ccncc3)cc2)[C@H]1C(=O)NO [prinomastat, (3S)-N-hydroxy-4-(4-(pyrid-4-yloxyl)benzenesulfonyl)-2,2-dimethyltetrahydro-2H-1,4-thiazine-3-carboxamide, reference compound]	–	–	–	< 0.5	< 0.5	–	–	–	–	–	–
COc1ccc2[nH]c3c(c2c1)CCNC3C(=O)O (stereo not shown) [6-methoxy-1,2,3,4-tetrahydronorarmano-1-carboxylic acid, reference compound]	–	–	–	–	200	–	–	–	–	–	–
O=C(O)C1c2[nH]c3ccccc3c2CCN1S(=O)(=O)c1ccc(Oc2ccc(Cl)cc2)cc1 (racemic) [Compound 8, (1 RS)-2-(4"-chloro-4'-phenoxybenzenesulfonyl)-1,2,3,4-tetrahydronorarmano-1-carboxylic acid]	> 50000	10000 ± 2000	> 50000	2000 ± 200	10000 ± 1000	> 50000	800 ± 200	15000 ± 4000	–	–	–
CC(C)(C)c1ccc(S(=O)(=O)N2CCc3c([nH]c4ccccc34)C2C(=O)O)cc1 (racemic) [Compound 7, (1 RS)-2-(4'-t-butylbenzenesulfonyl)-1,2,3,4-tetrahydro-norarmano-1-carboxylic acid]	–	> 125000	–	–	–	–	–	–	–	–	–
Cc1ccc(S(=O)(=O)N2CCc3c([nH]c4ccccc34)C2C(=O)O)cc1 (racemic) [Compound 5, (1RS)-2-(4-methylbenzenesulfonyl)-1,2,3,4-tetrahydro-norarmano-1-carboxylic acid]	–	15000	–	–	–	–	–	141000	–	–	–
O=C(NO)C1c2[nH]c3ccccc3c2CCN1S(=O)(=O)c1ccc(Oc2ccc(F)cc2)cc1 (racemic) [Compound 14, (1RS)-2-(4"-fluoro-4'-phenoxybenzenesulfonyl)-1,2,3,4-tetrahydronorarmano-N-hydroxy-1-carboxamide]	3.2 ± 0.1	< 0.3	600 ± 200	–	< 0.5	340 ± 100	< 0.5	< 0.5	–	–	–
O=C(NO)C1c2[nH]c3ccccc3c2CCN1S(=O)(=O)c1ccc(Oc2ccc(Cl)cc2)cc1 (racemic) [Compound 13, (1 RS)-2-(4"-chloro-4'-phenoxybenzenesulfonyl)-1,2,3,4-tetrahydronorarmano-N-hydroxy-1-carboxamide]	30	< 0.3	–	–	–	> 50000	–	–	~100	~830	about 16 000 fold
O=C(O)C1c2[nH]c3ccccc3c2CCN1S(=O)(=O)c1ccc(-c2ccccc2)cc1 (racemic) [Compound 3, (1RS)-2-(4'-phenylbenzenesulfonyl)-1,2,3,4-tetrahydro-norarmano-1-carboxylic acid]	30000 ± 2000	600 ± 800	11000 ± 1000	300 ± 50	3000 ± 700	> 50000	160 ± 50	7500 ± 5000	–	–	–
COc1ccc(Oc2ccc(S(=O)(=O)N3CCc4c([nH]c5ccccc45)C3C(=O)O)cc2)cc1 (racemic) [Compound 2, (1RS)-2-(4"-methoxy-4'-phenoxybenzenesulfonyl)-1,2,3,4-tetrahydronorarmano-1-carboxylic acid]	> 50000	600 ± 100	> 50000	500 ± 100	1600 ± 200	> 50000	15000 ± 5000	2200 ± 800	–	–	–
O=C(O)C1c2[nH]c3ccccc3c2CCN1S(=O)(=O)c1ccc2ccccc2c1 (racemic) [Compound 6, (1RS)-2-(2-naphthylsulfonyl)-1,2,3,4-tetrahydro-norarmano-1-carboxylic acid]	–	2500 ± 100	–	–	–	–	–	62000 ± 5000	–	–	–
COc1ccc(Oc2ccc(S(=O)(=O)N3CCc4c([nH]c5ccccc45)C3C(=O)NO)cc2)cc1 (racemic) [Compound 12, (1 RS)-2-(4"-methoxy-4'-phenoxybenzenesulfonyl)-1,2,3,4-tetrahydronorarmano-N-hydroxy-1-carboxamide]	5 ± 1	< 0.3	30000 ± 10000	< 0.5	< 0.5	350 ± 100	< 0.5	< 0.5	–	–	–
CCCCOc1ccc(S(=O)(=O)N2CCc3c([nH]c4ccccc34)C2C(=O)O)cc1 (racemic) [Compound 4, (1 RS)-2-(4'-butoxybenzenesulfonyl)-1,2,3,4-tetrahydro-norarmano-1-carboxylic acid]	–	680 ± 200	–	4500 ± 1000	30000	> 50000	2000 ± 500	24000 ± 1000	–	–	–
O=C(NO)C1c2[nH]c3ccccc3c2CCN1S(=O)(=O)c1ccc(-c2ccccc2)cc1 (racemic) [Compound 11, (1R,S)-2-(4'biphenylsulfonyl)-1,2,3,4-tetrahydro-norarmano-N-hydroxy-1-carboxamide]	–	14 ± 3	600	4 ± 1.6	4.7 ± 0.5	3000 ± 1000	3	15 ± 2	–	–	–
